Target: T1, VEB-1 (Escherichia coli, UniProt Q7BVU7)
T1 construct: gene blaVEB; natural plasmid-encoded enzyme, no tags; crude cell extracts of E. coli K12 26R793 transconjugants TrcS-2865 (VEB-1) and TrcE-1037 (VEB-25, GenBank MN862699), which also contain OXA-10 and TEM-1
Experiment: spectrophotometric inhibition of ceftazidime hydrolysis
Assay type: biochemical

With `NC(=O)[C@@H]1CC[C@@H]2CN1C(=O)N2OS(=O)(=O)O` [avibactam] the IC50 was 0.1 nM.

Reference: publication PMC6976883, “Detection in two hospitals of transferable ceftazidime-avibactam resistance in Klebsiella pneumoniae due to a novel VEB β-lactamase variant with a Lys234Arg substitution, Greece, 2019” (Eurosurveillance, 2020)
